From PubChem BioAssay (NCI)
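Grown in 96-well plates, cells were treated for 48 hours with each compound at five concentrations. Insufficient inhibition: endpoint recorded as highest concentration tested. GI50 marks 50% less growth. TGI is the concentration that stops growth completely.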

Legend:
Assay in all cases: inhibition of tumour cell growth, NCI panel, 48 h
[1] = test system: HL-60(TB) leukemia
[2] = test system: M14 melanoma
[3] = test system: MALME-3M melanoma
[4] = test system: NCI-H23 lung
[5] = test system: SW-620 colon
[6] = test system: UACC-257 melanoma
[7] = test system: UO-31 renal
[8] = test system: A498 renal
[9] = test system: HOP-92 NSCLC
[10] = test system: SNB-75 CNS

SMILES | TGI [1] | TGI [2] | TGI [3] | TGI [4] | TGI [5] | TGI [6] | TGI [7] | TGI [8] | TGI [9] | TGI [10] | GI50 [8] | GI50 [1] | GI50 [9] | GI50 [2] | GI50 [4] | GI50 [10] | GI50 [5] | GI50 [6] | GI50 [7] | GI50 [3]
Cc1ccc(NC(=O)CC/C(CC(=O)C(C)(C)C)=N/NC(=O)C[N+](C)(C)C)cc1C | > 100 µM | > 100 µM | > 100 µM | > 100 µM | > 100 µM | > 100 µM | > 100 µM |  |  |  |  |  |  |  |  |  |  |  |  | 
CCOC(=O)C1=C(C)N(Cc2ccccc2)C(=O)C1CC#N (centres undefined) | 94.7 µM | > 100 µM |  | > 100 µM | > 100 µM | > 100 µM | > 100 µM | > 100 µM | 82.5 µM | > 100 µM |  |  |  |  |  |  |  |  |  | 
NCCCn1c2c(c3ccc([N+](=O)[O-])cc3c1=O)C(=O)c1cc(-c3ccccc3)ccc1-2 | 1.3 µM | 2.37 µM |  | 2.88 µM | 0.336 µM | 3.46 µM | 3.41 µM | 1.54 µM | 3.15 µM | 1.87 µM | 0.694 µM | 0.5 µM | 1.36 µM | 1.12 µM | 1.29 µM | 0.579 µM | 0.182 µM | 1.85 µM | 1.73 µM | 
CCC(CCC(C)C1CCC2C3CC=C4CC(OC5OC(CO)C(O)C(O)C5O)CCC4(C)C3CCC12C)C(C)C (centres undefined) | > 100 µM | > 100 µM | > 100 µM | > 100 µM | > 100 µM | > 100 µM | > 100 µM | > 100 µM | > 100 µM |  |  |  |  |  |  |  |  |  |  | 
COc1ccc2c(c1)[n+]([O-])c(-c1ccc(Br)cc1)c(N)[n+]2[O-] | > 100 µM |  | 60.1 µM | 55.3 µM | > 100 µM | > 100 µM | > 100 µM | > 100 µM | > 100 µM | > 100 µM |  |  |  |  |  |  |  |  |  | 
COc1ccc(-c2nc(Nc3ccc(-c4nc5ccccc5[nH]4)cc3)nc(N3CCOCC3)n2)cc1 | 5.67 µM | 4.03 µM | 3.95 µM | 9.9 µM | 4.8 µM |  | 5.64 µM | 3.57 µM | 3.74 µM | 10.5 µM | 1.52 µM | 1.94 µM | 1.8 µM | 1.94 µM | 2.57 µM | 1.8 µM | 2.19 µM |  | 2.16 µM | 2.05 µM
C/C=C(/CCC1NCCC2c3ccccc3NC12)[Si](C)(C)C (centres undefined) | 4.36 µM | 11.8 µM |  | 28.8 µM | 9.68 µM | 14.2 µM | 20.2 µM |  | 18.8 µM | 21.4 µM |  |  |  |  |  |  |  |  |  | 
c1ccc(CN2CCC3(CC2)SSC2(CCN(Cc4ccccc4)CC2)SS3)cc1 |  | > 100 µM | > 100 µM | > 100 µM | > 100 µM | > 100 µM | > 100 µM | > 100 µM | > 100 µM | > 100 µM |  |  |  |  |  |  |  |  |  | 
COC(=O)NN1C(C)=C(C(=O)OC)C2(C#N)C(C(=O)OC)=C(C)N(NC(=O)OC)C12N (centres undefined) | > 100 µM | > 100 µM | > 100 µM | > 100 µM | > 100 µM | > 100 µM | > 100 µM | > 100 µM | > 100 µM |  |  |  |  |  |  |  |  |  |  | 
COC(=O)c1ccc2c(c1)C(=O)c1c-2n(C)c(=O)c2cc(OC)c(OC)cc12 |  | > 50 µM | > 50 µM | > 50 µM | > 50 µM |  | > 50 µM | > 50 µM | > 50 µM |  | > 50 µM |  | 18.8 µM | > 50 µM | > 50 µM |  | > 50 µM |  | > 50 µM | > 50 µM
O=c1c2c(c3ccccc3n1-c1ccccc1)NC(=S)NC2c1ccc(Cl)cc1 (centres undefined) | 45 µM | 16.1 µM |  | 50.7 µM | 49.9 µM | > 100 µM | 42.7 µM | 12.5 µM | 19 µM | 22.6 µM | 2.92 µM | 3.6 µM | 2.38 µM | 3.19 µM | 2.74 µM | 3.54 µM | 6.97 µM | 5.9 µM | 3.22 µM | 
N.N.O=P([O-])([O-])CN(CCN(CP(=O)([O-])[O-])CP(=O)([O-])[O-])CP(=O)([O-])[O-].[Pt+2] | > 100 µM | > 100 µM | > 100 µM | > 100 µM | > 100 µM | > 100 µM | > 100 µM |  | > 100 µM |  |  | > 100 µM | > 100 µM | > 100 µM | > 100 µM |  | > 100 µM | > 100 µM | > 100 µM | > 100 µM
NC1CCC(Nc2nc(NCc3cc(Cl)ccc3O)c3ncn(C4CCCC4)c3n2)CC1 (centres undefined) | 0.388 µM | 0.33 µM |  | 0.478 µM | 0.922 µM | 0.387 µM | 0.599 µM | 0.484 µM | 0.63 µM | 0.33 µM | 0.211 µM | 0.165 µM | 0.163 µM | 0.162 µM | 0.153 µM | 0.114 µM | 0.15 µM | 0.18 µM | 0.227 µM | 
CCN(CC)CCOc1ccc(/C=C2\C[C@H]3[C@H]4CC=C5C[C@@H](O)CC[C@]5(C)[C@H]4CC[C@]3(C)[C@H]2O)cc1OC | 22.5 µM | 16.8 µM |  | 23.9 µM | 11.7 µM | 18.1 µM | 18 µM |  |  |  |  | 10.4 µM |  | 6.12 µM | 11.2 µM |  | 1.93 µM | 8.42 µM | 7.23 µM | 
Cn1cc(-c2csc(-c3cn(CCCCN4CCCCC4)c4ccc(F)cc34)n2)c2cccnc21 |  |  |  | 3.2 µM | 3.44 µM | 3.25 µM |  | 3.28 µM | 27.8 µM |  | 1.6 µM |  | 4.81 µM |  | 1.69 µM |  | 1.83 µM | 1.7 µM |  | 
O=C(NNc1ccc(F)cc1)C1CCC(CNS(=O)(=O)c2ccc(Cl)c(Cl)c2)CC1 (centres undefined) | 9.57 µM | > 50 µM |  |  | > 50 µM | 28.5 µM | > 50 µM |  | 37.5 µM |  |  | 1.82 µM | 7.35 µM | 7.49 µM |  |  | 9.03 µM | 7.91 µM | 16.8 µM | 
CCOC(=O)c1ccc2c(c1)nc(/C=C/c1ccc(Cl)cc1)n2-c1cc(C(C)(C)C)[nH]n1 | > 100 µM | > 100 µM | 18.5 µM | > 100 µM | > 100 µM | > 100 µM | 25.3 µM | 41.7 µM |  | 5.51 µM | 3.03 µM | 39.9 µM |  | 20.9 µM | 19.3 µM | 1.9 µM | 12.8 µM | 6.84 µM | 2.71 µM | 2.8 µM
C=C1CC[C@@H]2[C@](C)(COC(C)=O)[C@H](OC(C)=O)CC[C@@]2(C)[C@@H]1CC(Nc1ccc(S(=O)(=O)Nc2cc(C)on2)cc1)C1=CCOC1=O (some centres undefined) | 3.69 µM | 4.17 µM |  | 5.9 µM | 2.91 µM | 6.19 µM | 3.52 µM | 20.3 µM | 8 µM | 11.5 µM | 7.69 µM | 1.39 µM | 3.07 µM | 1.69 µM | 2.31 µM | 2.03 µM | 1.32 µM | 2.95 µM | 1.69 µM | 
N#Cc1ccsc1NC(=O)COC(=O)c1cccc(S(=O)(=O)N2CCc3ccccc32)c1 | > 100 µM |  | > 100 µM | > 100 µM | > 100 µM | > 100 µM | > 100 µM | > 100 µM | > 100 µM | > 100 µM | > 100 µM | 37.9 µM | 40.1 µM |  | 38.9 µM | 29.9 µM | 24.1 µM | 28.9 µM | 41.2 µM | 75.8 µM
Cc1cc(=O)n2c3c(c4c(cc13)c(CO)cc(=O)n4C)OC2 |  | > 100 µM | 28.5 µM | 48.1 µM | > 100 µM | > 100 µM | 40.2 µM | 72.5 µM | 97.1 µM | 70.5 µM |  |  |  |  |  |  |  |  |  | 
O=C(N/C(=C\c1ccc(/C=C(\NC(=O)c2ccccc2)c2nc3cc(Cl)ccc3[nH]2)cc1)c1nc2cc(Cl)ccc2[nH]1)c1ccccc1 |  | > 100 µM | > 100 µM | > 100 µM | > 100 µM | > 100 µM | > 100 µM | > 100 µM | > 100 µM | > 100 µM |  |  |  |  |  |  |  |  |  | 
CSCC[C@H](NC(=O)[C@H](CC(C)C)NC(=O)[C@@H](Cc1ccccc1)NC(=O)CNC(=O)[C@@H](NC(=O)[C@H](C)NC(=O)[C@H](Cc1c[nH]c2ccccc12)NC(=O)[C@H](CCC(N)=O)NC(=O)[C@H](N)CC(N)=O)C(C)C)C(N)=O | > 12.5 µM | > 12.5 µM | > 12.5 µM | > 12.5 µM | > 12.5 µM | > 12.5 µM |  | > 12.5 µM | > 12.5 µM | > 12.5 µM |  |  |  |  |  |  |  |  |  | 
O=C1C=CC(=Nc2ccccc2)c2ccccc21 | 21.7 µM | 18.6 µM |  | 13.1 µM | > 100 µM | 8.39 µM | 23.3 µM | 39.4 µM | 28.4 µM | 20 µM |  |  |  |  |  |  |  |  |  | 
CCCCCc1cc[n+](CC(=O)c2ccc([N+](=O)[O-])cc2)cc1 |  | 22.7 µM | 8 µM | 11.9 µM | > 100 µM | 7.08 µM | 43.6 µM | 24.6 µM | 9.84 µM | 26.6 µM | 10.4 µM |  | 2.2 µM | 7.03 µM | 2.89 µM | 10.9 µM | 3.22 µM | 2.28 µM | 4.61 µM | 2.15 µM
